Test [1] concerns anti-IgM-induced expression of CD69 on CD19 positive cells (B cells) in human PBMCs. The experiment in a line: Assay C: PBMC IC50 assay (anti-IgM-induced CD69 expression). Format: cell-based. The conditions noted are these: anti-IgM stimulation. The procedure, abridged: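 Freshly isolated human PBMCs (2.5×10^5/well) pretreated 1 h with compound, then stimulated overnight (~16-18 h) with goat F(ab′)2 anti-human IgM. CD69 on CD19+ B cells measured by flow cytometry; IC50 from percentage CD69+ B cells versus concentration.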

Test [2] deals with BTK C481S (His-TEV-hsBTK(328-659)(C481S)) (Homo sapiens (Human), UniProt Q06187, C481S). In words: Assay B: microfluidic off-chip mobility shift assay against BTK C481S enzyme. In kind it is biochemical. The conditions noted are these: BTK C481S mutant. The method, boiled down: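 Substrate-to-phosphopeptide conversion quantified by microfluidic mobility shift with laser-induced fluorescence; IC50 and efficacy from log[inhibitor] vs. % activity.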
Chain of BTK C481S (His-TEV-hsBTK(328-659)(C481S)) (Q06187 328-659 C481S): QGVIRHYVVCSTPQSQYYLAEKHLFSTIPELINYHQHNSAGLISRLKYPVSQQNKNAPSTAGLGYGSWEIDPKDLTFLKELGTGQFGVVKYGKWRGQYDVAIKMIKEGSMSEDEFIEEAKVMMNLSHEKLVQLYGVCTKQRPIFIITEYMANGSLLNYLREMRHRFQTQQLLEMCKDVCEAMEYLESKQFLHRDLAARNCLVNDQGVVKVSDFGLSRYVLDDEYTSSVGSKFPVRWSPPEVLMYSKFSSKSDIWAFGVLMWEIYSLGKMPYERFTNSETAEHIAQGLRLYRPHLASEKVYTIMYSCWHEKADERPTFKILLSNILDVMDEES

The next test deals with full-length human BTK (Homo sapiens (Human), UniProt Q06187). In words: Assay A: microfluidic off-chip mobility shift assay against BTK enzyme. In kind it is biochemical.
Chain of full-length human BTK (Q06187 whole entry): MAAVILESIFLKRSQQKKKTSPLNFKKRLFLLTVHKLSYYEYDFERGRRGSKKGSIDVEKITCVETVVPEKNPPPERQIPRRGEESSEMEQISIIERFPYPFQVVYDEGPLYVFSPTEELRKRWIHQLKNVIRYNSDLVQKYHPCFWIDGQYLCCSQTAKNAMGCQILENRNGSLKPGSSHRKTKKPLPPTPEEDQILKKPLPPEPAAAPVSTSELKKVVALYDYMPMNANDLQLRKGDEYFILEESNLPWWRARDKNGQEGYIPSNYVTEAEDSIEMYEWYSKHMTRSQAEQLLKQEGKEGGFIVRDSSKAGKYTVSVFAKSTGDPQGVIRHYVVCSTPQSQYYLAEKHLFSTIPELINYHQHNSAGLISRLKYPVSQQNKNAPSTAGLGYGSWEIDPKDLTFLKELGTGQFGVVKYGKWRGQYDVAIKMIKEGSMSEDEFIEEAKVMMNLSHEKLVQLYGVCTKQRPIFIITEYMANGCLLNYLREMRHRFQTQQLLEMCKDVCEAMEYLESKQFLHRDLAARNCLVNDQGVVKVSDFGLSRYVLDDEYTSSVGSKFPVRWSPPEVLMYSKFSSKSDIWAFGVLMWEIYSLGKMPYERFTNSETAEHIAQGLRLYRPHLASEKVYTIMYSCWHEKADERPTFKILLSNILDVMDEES

IC50 data for 20 compounds are collected here from patent US11098041B2 (Merck Patent GmbH, priority 2014, dated 2021).

For `CC(C)(C)c1nc(C(=O)NCc2ccc(-c3ccnc4[nH]c(-c5ccc(N6CCCCC6)cn5)nc34)cc2F)no1` [Example 83, 5-tert-Butyl-N-[(2-fluoro-4-[2-[5-(piperidin-1-yl)pyridin-2-yl]-3H-imidazo[4,5-b]pyridin-7-yl]phenyl)methyl]-1,2,4-oxadiazole-3-carboxamide], the IC50 (in test [1]; in test [2]; on full-length human BTK) was under 100 nM in each case.
Consider `CN1CC=C(c2ccc(-c3nc4c(-c5ccc(CNC(=O)c6noc(C(C)(C)C)n6)c(F)c5)ccnc4[nH]3)cc2)CC1` [Example 86, 5-tert-Butyl-N-[(2-fluoro-4-[2-[4-(1-methyl-1,2,3,6-tetrahydropyridin-4-yl)phenyl]-3H-imidazo[4,5-b]pyridin-7-yl]phenyl)methyl]-1,2,4-oxadiazole-3-carboxamide; Trifluoroacetic Acid], for which the IC50 (in test [1]; in test [2]; at full-length human BTK) was under 100 nM each time.
As for `CN(C)c1ccc(-c2nc3c(-c4ccc(CNC(=O)c5ccc(C(C)(C)C)cc5)c(F)c4)ccnc3[nH]2)nc1` [Example 89, 4-tert-Butyl-N-[(4-[2-[5-(dimethylamino)pyridin-2-yl]-3H-imidazo[4,5-b]pyridin-7-yl]-2-fluorophenyl)methyl]benzamide], the IC50 in test [1] is 1000 to 5000 nM; in test [2], under 100 nM; at full-length human BTK, under 100 nM.
With `CN(C)c1ccc(-c2nc3c(-c4ccc(CNC(=O)N5CC(OC(C)(C)C)C5)c(F)c4)ccnc3[nH]2)nc1` [Example 90, 3-(tert-Butoxy)-N-[(4-[2-[5-(dimethylamino)pyridin-2-yl]-3H-imidazo[4,5-b]pyridin-7-yl]-2-fluorophenyl)methyl]azetidine-1-carboxamide], the concentration for half-maximal inhibition (IC50) in test [1] is 1000 to 5000 nM; in test [2], 100 to 1000 nM; on full-length human BTK, under 100 nM.
For the compound `Cn1cc(-c2nc3c(-c4cccc(NC(=O)N5CC(OC(C)(C)C)C5)c4CO)ccnc3[nH]2)cn1` [Example 91, 3-(tert-Butoxy)-N-[2-(hydroxymethyl)-3-[2-(1-methyl-1H-pyrazol-4-yl)-3H-imidazo[4,5-b]pyridin-7-yl]phenyl]azetidine-1-carboxamide], the half-maximal inhibitory concentration (IC50) in test [1] was 100 to 1000 nM; in test [2], under 100 nM; at full-length human BTK it was under 100 nM.
In the case of `Cn1cc(-c2nc3c(-c4ccc(CN5Cc6cc(C7CC7)sc6C5=O)c(F)c4)ccnc3[nH]2)cn1` [Example 93, 2-Cyclopropyl-5-([2-fluoro-4-[2-(1-methyl-1H-pyrazol-4-yl)-3H-imidazo[4,5-b]pyridin-7-yl]phenyl]methyl)-4H,5H,6H-thieno[2,3-c]pyrrol-6-one], the IC50 is 100 to 1000 nM in test [1], under 100 nM in test [2] and under 100 nM at full-length human BTK.
Turning to `Cc1cc(-c2ccnc3[nH]c(-c4cnn(C)c4)nc23)ccc1CNC(=O)c1nnc(C(C)(C)C)o1` [Example 103, 5-tert-Butyl-[1,3,4]oxadiazole-2-carboxylic acid 2-methyl-4-[2-(1-methyl-1H-pyrazol-4-yl)-3H-imidazo[4,5-b]pyridin-7-yl]-benzylamide], the 50% inhibitory concentration (IC50) (in test [1]; in test [2]; on full-length human BTK) was under 100 nM in each case.
`Cn1cc(-c2nc3c(-c4ccc(C(C)(C)NC(=O)c5nnc(C(C)(C)C)o5)c(F)c4)ccnc3[nH]2)cn1` [Example 104, 5-tert-Butyl-[1,3,4]oxadiazole-2-carboxylic acid (1-{2-fluoro-4-[2-(1-methyl-1H-pyrazol-4-yl)-3H-imidazo[4,5-b]pyridin-7-yl]-phenyl}-1-methyl-ethyl)-amide]: the 50% inhibitory concentration (IC50) in test [1] is 1000 to 5000 nM; in test [2] it was under 100 nM; on full-length human BTK, under 100 nM.
In the case of `Cn1cc(-c2nc3c(-c4ccc(CNC(=O)c5nc(C(C)(C)C)no5)cc4CO)ccnc3[nH]2)cn1` [Example 105, 3-tert-Butyl-[1,2,4]oxadiazole-5-carboxylic acid 3-hydroxymethyl-4-[2-(1-methyl-1H-pyrazol-4-yl)-3H-imidazo[4,5-b]pyridin-7-yl]-benzylamide], the half-maximal inhibitory concentration (IC50) in test [1] was 1000 to 5000 nM; in test [2], under 100 nM; on full-length human BTK, under 100 nM.
For `Cn1cc(-c2nc3c(-c4ccc(C(C)(C)NC(=O)c5ccc(C(C)(C)C)cc5)c(F)c4)ccnc3[nH]2)cn1` [Example 106, 4-tert-Butyl-N-(1-{2-fluoro-4-[2-(1-methyl-1H-pyrazol-4-yl)-3H-imidazo[4,5-b]pyridin-7-yl]-phenyl}-1-methyl-ethyl)-benzamide], the half-maximal inhibitory concentration (IC50) is 100 to 1000 nM in test [1], 100 to 1000 nM in test [2] and under 100 nM on full-length human BTK.
With `Cn1cc(-c2nc3c(-c4ccc(CNC(=O)c5nnc(C(C)(C)C)o5)cc4)ccnc3[nH]2)cn1` [Example 109, 5-tert-Butyl-[1,3,4]oxadiazole-2-carboxylic acid 4-[2-(1-methyl-1H-pyrazol-4-yl)-3H-imidazo[4,5-b]pyridin-7-yl]-benzylamide], the IC50 in test [1] is 1000 to 5000 nM; in test [2], 1000 to 5000 nM; at full-length human BTK, under 100 nM.
Regarding `Cn1cc(-c2nc3c(-c4ccc(CNC(=O)c5ccc(C(C)(C)C)cc5)cc4)ccnc3[nH]2)cn1` [Example 110, 4-tert-Butyl-N-{4-[2-(1-methyl-1H-pyrazol-4-yl)-3H-imidazo[4,5-b]pyridin-7-yl]-benzyl}-benzamide], the results for the IC50 (in test [1]; in test [2]; on full-length human BTK) were 100 to 1000 nM, under 100 nM and under 100 nM, respectively.
Consider `Cn1cc(-c2nc3c(-c4ccc(CNC(=O)c5nnc(C(C)(C)C)o5)c(F)c4)ccnc3[nH]2)cn1` [Example 111, 5-tert-Butyl-[1,3,4]oxadiazole-2-carboxylic acid 2-fluoro-4-[2-(1-methyl-1H-pyrazol-4-yl)-3H-imidazo[4,5-b]pyridin-7-yl]-benzylamide], for which the concentration for half-maximal inhibition (IC50) in test [1] is 100 to 1000 nM; in test [2], under 100 nM; at full-length human BTK, under 100 nM.
For the compound `Cn1cc(-c2nc3c(-c4ccc(C5(NC(=O)c6ccc(C(C)(C)C)cc6)CC5)cc4)ccnc3[nH]2)cn1` [Example 113, 4-tert-Butyl-N-(1-{4-[2-(1-methyl-1H-pyrazol-4-yl)-3H-imidazo[4,5-b]pyridin-7-yl]-phenyl}-cyclopropyl)-benzamide], the IC50 is 100 to 1000 nM in test [1], under 100 nM in test [2] and under 100 nM at full-length human BTK.
Consider `O=C(NCc1ccc(-c2ccnc3[nH]c(-c4cnn(CCN5CCOCC5)c4)nc23)cc1F)c1nnc(C2CCOCC2)o1` [Example 122, 5-(Tetrahydro-pyran-4-yl)-[1,3,4]oxadiazole-2-carboxylic acid 2-fluoro-4-{2-[1-(2-morpholin-4-yl-ethyl)-1H-pyrazol-4-yl]-3H-imidazo[4,5-b]pyridin-7-yl}-benzylamide], for which the 50% inhibitory concentration (IC50) in test [1] was over 5000 nM; in test [2], 100 to 1000 nM; at full-length human BTK, 100 to 1000 nM.
Take `CCn1cc(-c2nc3c(-c4ccc(CNC(=O)c5cc6c(s5)CCCC6)c(F)c4)ccnc3[nH]2)cn1` [Example 130, 4,5,6,7-Tetrahydro-benzo[b]thiophene-2-carboxylic acid 4-[2-(1-ethyl-1H-pyrazol-4-yl)-3H-imidazo[4,5-b]pyridin-7-yl]-2-fluoro-benzylamide]: the figures for the IC50 (in test [1]; in test [2]; on full-length human BTK) were 100 to 1000 nM, under 100 nM and under 100 nM, respectively.
Take `CN1CC=C(c2nc3c(-c4ccc(CNC(=O)c5nnc(C(C)(C)C)o5)c(F)c4)ccnc3[nH]2)CC1` [Example 139, 5-tert-Butyl-[1,3,4]oxadiazole-2-carboxylic acid 2-fluoro-4-[2-(1-methyl-1,2,3,6-tetrahydro-pyridin-4-yl)-3H-imidazo[4,5-b]pyridin-7-yl]-benzylamide]: the half-maximal inhibitory concentration (IC50) in test [1] is 1000 to 5000 nM; in test [2], under 100 nM; on full-length human BTK it was under 100 nM.
Regarding `CC(C)(C)c1nnc(C(=O)NCc2ccc(-c3ccnc4[nH]c(C5=CCNCC5)nc34)cc2F)o1` [Example 140, 5-tert-Butyl-[1,3,4]oxadiazole-2-carboxylic acid 2-fluoro-4-[2-(1,2,3,6-tetrahydro-pyridin-4-yl)-3H-imidazo[4,5-b]pyridin-7-yl]-benzylamide], the IC50 in test [1] was 1000 to 5000 nM; in test [2], under 100 nM; on full-length human BTK, under 100 nM.
`CN(C)c1ccc(-c2nc3c(-c4ccc(CNC(=O)c5noc(C(C)(C)C)n5)c(F)c4)ccnc3[nH]2)cc1` [Example 145, 5-(tert-butyl)-N-(4-(2-(4-(dimethylamino)phenyl)-3H-imidazo[4,5-b]pyridin-7-yl)-2-fluorobenzyl)-1,2,4-oxadiazole-3-carboxamide]: the 50% inhibitory concentration (IC50) (in test [1]; in test [2]; at full-length human BTK) was under 100 nM each time.
As to `CN(C)c1ccc(-c2nc3c(-c4ccc(CNC(=O)c5nc(C(C)(C)C)no5)c(F)c4)ccnc3[nH]2)nc1` [Example 148, 3-(tert-butyl)-N-(4-(2-(5-(dimethylamino)pyridin-2-yl)-3H-imidazo[4,5-b]pyridin-7-yl)-2-fluorobenzyl)-1,2,4-oxadiazole-5-carboxamide], the half-inhibitory concentration (IC50) (in test [1]; in test [2]; on full-length human BTK) was under 100 nM throughout.
